The target in this assay is SIK2 (Homo sapiens (Human), UniProt Q9H0K1). Description: SIK2 Enzymatic Assay Version 2 (High ATP). Type of assay: biochemical. The following applies: 3 mM ATP and 200 μM HDAC5tide final, ADP-Glo Max luminescence. Summed up: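 Luminescent ADP-Glo Max read-out: depletion reagent 2 h, then detection reagent 1 h. Before the reaction, compounds were incubated 30 min with enzyme added at 6 nM (twice final concentration), with all steps at room temperature.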
SIK2, sequence (Q9H0K1 whole entry, species assumed): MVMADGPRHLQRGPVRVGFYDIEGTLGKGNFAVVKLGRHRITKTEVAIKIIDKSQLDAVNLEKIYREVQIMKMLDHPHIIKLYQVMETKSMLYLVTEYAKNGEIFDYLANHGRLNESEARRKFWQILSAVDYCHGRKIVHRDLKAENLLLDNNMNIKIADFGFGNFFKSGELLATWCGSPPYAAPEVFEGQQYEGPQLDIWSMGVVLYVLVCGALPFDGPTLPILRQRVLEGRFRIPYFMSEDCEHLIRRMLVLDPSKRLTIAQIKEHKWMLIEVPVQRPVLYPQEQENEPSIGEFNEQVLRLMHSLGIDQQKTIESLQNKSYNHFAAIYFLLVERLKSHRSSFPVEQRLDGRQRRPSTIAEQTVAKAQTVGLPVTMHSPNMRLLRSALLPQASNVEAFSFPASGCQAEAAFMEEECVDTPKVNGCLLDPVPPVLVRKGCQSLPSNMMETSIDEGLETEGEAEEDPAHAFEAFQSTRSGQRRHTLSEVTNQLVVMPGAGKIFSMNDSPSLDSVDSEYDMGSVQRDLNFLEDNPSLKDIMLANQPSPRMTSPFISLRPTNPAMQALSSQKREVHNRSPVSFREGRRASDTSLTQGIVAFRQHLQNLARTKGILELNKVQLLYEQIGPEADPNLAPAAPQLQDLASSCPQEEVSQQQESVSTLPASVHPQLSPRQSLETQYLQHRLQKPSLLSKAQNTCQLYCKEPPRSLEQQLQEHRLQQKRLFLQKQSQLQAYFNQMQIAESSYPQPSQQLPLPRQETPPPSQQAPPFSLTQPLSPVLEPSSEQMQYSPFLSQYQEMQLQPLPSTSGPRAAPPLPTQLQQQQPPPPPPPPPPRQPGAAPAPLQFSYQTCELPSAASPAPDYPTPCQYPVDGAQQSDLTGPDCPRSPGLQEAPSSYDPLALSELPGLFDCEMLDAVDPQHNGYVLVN
With `CN1CC2(CCOCC2)C1COc1cnn(C)c1-c1ccn2nc(NC(=O)C3CC3)cc2c1` (racemic) [Example 13, (rac)-N-[5-[2-methyl-4-[(2-methyl-7-oxa-2-azaspiro[3.5]nonan-3-yl)methoxy]pyrazol-3-yl]pyrazolo[1,5-a]pyridin-2-yl]cyclopropanecarboxamide], the IC50 is 71.5 nM.
As for `Cn1ncc(CO[C@@H]2CNCC2(F)F)c1-c1ccn2nc(NC(=O)C3CC3)cc2c1` (single isomer, unassigned) [Example 189, (*R)—N-[5-[4-[(4,4-difluoropyrrolidin-3-yl)oxymethyl]-2-methyl-pyrazol-3-yl]pyrazolo[1,5-a]pyridin-2-yl]cyclopropanecarboxamide], the figure is 12 nM; as for `CCCN1CC[C@@H]1COc1cnn(C)c1-c1ccn2nc(NC(=O)C3CC3)cc2c1` [Example 246, N-[5-[2-methyl-4-[[(2R)-1-propylazetidin-2-yl]methoxy]pyrazol-3-yl]pyrazolo[1,5-a]pyridin-2-yl]cyclopropanecarboxamide], 1.6 nM; as for `Cc1cncc(Nc2cc3cc(-c4c(OC[C@H]5CCN5C)cnn4C)ccn3n2)n1` [Example 46, 5-[2-methyl-4-[[(2R)-1-methylazetidin-2-yl]methoxy]pyrazol-3-yl]-N-(6-methylpyrazin-2-yl)pyrazolo[1,5-a]pyridin-2-amine], 2.5 nM.
`C[C@H]1CNC[C@H]1OCc1cnn(C)c1-c1ccn2nc(NC(=O)C3CC3)cc2c1` (single isomer, unassigned) [Example 194, (3*S,4*S)—N-[5-[2-methyl-4-[(4-methylpyrrolidin-3-yl)oxymethyl]pyrazol-3-yl]pyrazolo[1,5-a]pyridin-2-yl]cyclopropanecarboxamide] registered an IC50 of 4.7 nM.
Turning to `CN1CC(C)(OCc2cnn(C)c2-c2ccn3nc(NC(=O)C4CC4)cc3c2)C1` [Example 192, N-[5-[4-[(1,3-dimethylazetidin-3-yl)oxymethyl]-2-methyl-pyrazol-3-yl]pyrazolo[1,5-a]pyridin-2-yl]cyclopropanecarboxamide], the concentration for half-maximal inhibition (IC50) turned out to be 19.6 nM.
As for `C[C@H]1C[C@@H]1C(=O)Nc1cc2cc(-c3c(OC[C@H]4CCN4C)cnn3C)ccn2n1` [Example 15, (1S,2S)-2-methyl-N-[5-[2-methyl-4-[[(2R)-1-methylazetidin-2-yl]methoxy]pyrazol-3-yl]pyrazolo[1,5-a]pyridin-2-yl]cyclopropanecarboxamide], half-maximal inhibition (IC50) required 9.1 nM.
`[2H]C([2H])([2H])C([2H])([2H])N1CCC[C@@H]1COc1cnn(C)c1-c1ccn2nc(Nc3cc(C)nc(C)n3)cc2c1` [Example 293, N-(2,6-dimethylpyrimidin-4-yl)-5-[2-methyl-4-[[(2R)-1-(1,1,2,2,2-pentadeuterioethyl)pyrrolidin-2-yl]methoxy]pyrazol-3-yl]pyrazolo[1,5-a]pyridin-2-amine] gave an IC50 of less than 0.847 nM.
As for `Cc1onc(OC[C@@]23CN[C@@H](CO2)C3)c1-c1ccn2nc(NC(=O)C3CC3)cc2c1` [Example 201, N-[5-[5-methyl-3-[[(1R,4R)-5-oxa-2-azabicyclo[2.2.1]heptan-4-yl]methoxy]isoxazol-4-yl]pyrazolo[1,5-a]pyridin-2-yl]cyclopropanecarboxamide], the figure is 42.1 nM; as for `Cc1onc(OC[C@H]2C[C@@H](N)C2)c1-c1ccn2nc(NC(=O)C3CC3)cc2c1` [Example 319, N-[5-[3-[(3-aminocyclobutyl)methoxy]-5-methyl-isoxazol-4-yl]pyrazolo[1,5-a]pyridin-2-yl]cyclopropanecarboxamide], 51.8 nM; as for `CC(C)CN1CC[C@@H]1COc1cnn(C)c1-c1ccn2nc(NC(=O)C3CC3)cc2c1` [Example 244, N-[5-[4-[[(2R)-1-isobutylazetidin-2-yl]methoxy]-2-methyl-pyrazol-3-yl]pyrazolo[1,5-a]pyridin-2-yl]cyclopropanecarboxamide], 6.3 nM.

The term IC50 denotes the midpoint of a concentration-inhibition curve. Low readings indicate inhibition by little substance, high ones a need for much substance.

(Values after patent US20240174662A1, “SMALL MOLECULE INHIBITORS OF SALT INDUCIBLE KINASES” (Janssen Biotech, Inc., priority 2021, published 2024).)
